# Assay results: patent US4551460A, “Pyrido[2,1-b]quinazoline derivatives useful as agents for treatment of allergic conditions and vascular disorders involving thrombosis” (priority 1983, dated 1985)
# Read-outs that look alike come from different tables or passages of the source.
# What was measured:
# [1] = system: KCl-induced constriction in guinea pig ilea; assay: Antagonism of KCl-induced constriction in guinea pig ilea
# Protocol: (h) Antagonism of KCl-induced Constriction in Guinea Pig Ilea
# A 1-1.5 cm segment of guinea pig ileum removed from animals weighing 200-250 g is suspended in an organ bath containing 10 ml of Tyrodes solution with 10^-6 M atropine sulfate and 10^-6 M pyrilamine maleate. The bath is maintained at 37° C. and aerated with a mixture of 95% O2 and 5% CO2. KCl induces isometric constrictions of the ileum at concentrations between 10-30mM. The contractions consist of two phases, an initial fast contraction (the phasic portion), followed by a relaxation down to less intense but more prolonged contraction (the tonic phase). Varying concentrations of test drugs are incubated with the ileum for three minutes prior to KCl-challenge. The drug concentrations, which inhibit by 50% the phasic and tonic portion of the KCl-induced constrictions, are determined (IC50 's).
# [2] = system: PAF-induced bronchoconstriction; assay: Antagonism of PAF-induced bronchoconstriction in the guinea pig; format: in vivo, guinea pig (Hartley strain); conditions: Cavia porcellus, po, 2 hour pretreatment; read-out: ID50 antagonism of PAF-induced bronchoconstriction
# Protocol: (g) Antagonism of PAF and Histamine-induced Bronchoconstriction in Guinea Pig
# Spontaneously breathing male guinea pigs (Hartley strain) weighing 300-450 grams are dosed orally with test drug or control vehicle two hours prior to challenge with agonist. The animals are anesthetized with urethane (2 gm/kg) intraperitoneally and the jugular vein and trachea are cannulated. Two hours after dosing, the animal is paralyzed with succinylcholine (1.2 mg/kg, i.v.) and ventilated (Harvard rodent respirator) at 40 breaths/minutes and 2.5 cc tidal volume. Propranolol (0.1 mg/kg, i.v.) is administered and five minutes thereafter the animal is challenged with a constrictory dose of platelet activating factor (10 μg/kg, i.v.) or histamine dihydrochloride (20 μg/kg, i.v.). The change (cm H2 O) between pre and peak ventilatory pressure readings is averaged for three control animals and five drug treated animals. The percent inhibition is calculated from the following formula: (Control-Drug Treated/Control)×100.
# [3] = system: arachidonic acid induced platelet aggregation; assay: Arachidonic acid induced platelet aggregation in vitro; format: cell-based; conditions: read-out: AA (IC50, arachidonic acid induced platelet aggregation)
# Protocol: (§1) (1) Assay for Platelet Aggregation In Vitro
# (§2) The turbidometric method of G. V. R. Born, Nature 194, 927 (1962) is used. Platelet rich plasma (PRP) and platelet poor plasma (PPP) are prepared with 0.38% sodium citrate-treated blood. Speed and time of centrifugation varied with different species; human:160 g for 20 minutes, dog:160 g for 15 minutes, guinea pig and rabbit:160 g for 15 minutes, and rat:230 g for 10 minutes. Aggregation is monitored with a Payton dual channel module or Chronolog lumiaggregometer when the release of ATP is simultaneously measured. 0.45 ml of PRP is added to a cuvette and prewarmed to 37° C. The stimulant (arachidonic acid or synthetic platelet activating factor) is added in volumes of 50 μl; all other agents in 5 μl. Vehicles are added to samples not containing agents. 0 to 100% light transmission is set with PRP and PPP. % aggregation is calculated from the % increase in light transmission at 5 minutes after the addition of the aggregating agent. For inhibition of aggregation studies the inhibitor is added first and preincubated with the platelets for 1 minute with stirring, followed by the stimulant. % inhibition is calculated from the % aggregation with and without the test compound. [formula]
# [4] = target: T1, TXA2 synthase in human platelet microsomes (Homo sapiens, UniProt P24557); assay: Thromboxane synthase (TXA2 syn.) inhibitory activity; format: biochemical; conditions: 10 μM PGH2
# T1 construct: using microsomal fractions from human platelets as enzyme source; from tissue; host or cells: human platelets, microsomal fraction
# T1 sequence (P24557 1-533): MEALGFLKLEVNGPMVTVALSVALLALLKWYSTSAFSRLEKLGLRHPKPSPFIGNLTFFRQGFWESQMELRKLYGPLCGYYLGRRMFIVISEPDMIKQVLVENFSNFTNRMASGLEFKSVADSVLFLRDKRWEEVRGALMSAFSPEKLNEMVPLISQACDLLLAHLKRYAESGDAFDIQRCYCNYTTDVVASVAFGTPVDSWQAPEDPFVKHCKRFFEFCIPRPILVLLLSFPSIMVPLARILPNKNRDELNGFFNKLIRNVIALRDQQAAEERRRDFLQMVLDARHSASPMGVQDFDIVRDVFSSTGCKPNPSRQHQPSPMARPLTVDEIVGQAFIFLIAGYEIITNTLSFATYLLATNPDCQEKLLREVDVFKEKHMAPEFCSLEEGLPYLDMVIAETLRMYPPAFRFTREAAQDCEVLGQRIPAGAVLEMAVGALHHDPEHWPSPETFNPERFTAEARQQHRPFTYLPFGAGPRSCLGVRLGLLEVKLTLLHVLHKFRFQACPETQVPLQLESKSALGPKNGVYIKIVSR
# Protocol: (d) Assay for Thromboxane Synthase (TXA2 Syn.) Inhibitory Activity
# TXA2 syn. activity is measured by following the conversion of ^14 C-prostaglandin endoperoxide (PGH2) to ^14 C-thromboxane A2 (TXA2) using microsomal fractions from human platelets as enzyme source. In the aqueous incubation medium, the TXA2 decomposes rapidly into TXB2. The amount of TXA2 syn. is adjusted so that under the conditions of the assay approximately 80-90% of the substrate, PGH2, is converted to product in control tubes. To prepare ^14 C-PGH2, ^14 C-AA (50-60 mCi/mmole; Rose Chem.) is incubated with sheep seminal vesicular gland microsomes for 1.5 min at 37° and then the ^14 C-PGH2 is extracted with diethylether, purified on columns of Sephadex LH-20 or silicic acid, and stored in acetone at -70° C. Incubations are done as follows. Sufficient ^14 C-PGH2 to yield a final substrate concentration of 10 μM (~30,000 cpm) is added to the incubation tubes and then the acetone is removed under nitrogen. The tubes are placed in an ice bath and then 215 μl of ice cold phosphate buffered saline, 10 μl of ethanol (control) or of test drug in ethanol, and 25 μl of the microsomal suspension are added with mixing in that order as rapidly as possible. The tubes are incubated at 22° for 2 minutes, the reaction is stopped and then the radioactive products and the uncoverted PGH2 are extracted and analyzed by thin layer chromatography. […] The amount of ^14 C-PGH2 converted to products was used as a measure of TXA2 synthase activity. Inhibitors were tested initially at a final concentration of 100 μM.
# [5] = system: platelet activating factor induced platelet aggregation; assay: Platelet activating factor induced platelet aggregation in vitro; format: cell-based; conditions: racemic platelet activating factor; read-out: PAF (IC50, platelet activating factor induced platelet aggregation)
# Protocol: as §1, §2
# [6] = phasic, read-out: IC50 antagonism of KCl-induced constriction (phasic)
# [7] = tonic, read-out: IC50 antagonism of KCl-induced constriction (tonic)
Compound,"IC50 [1, 6] [µM]","IC50 [1, 7] [µM]",ED50 [2] [mg/kg],IC50 [3] [µM],IC50 [4] [µM],IC50 [5] [µM]
"CC(C)c1ccc2nc3ccc(C(=O)NCCCCCCc4cccnc4)cn3c(=O)c2c1 [Compound C, 2-(1-Methylethyl)-N-[6-(3-pyridyl)hexyl]-11-oxo-11H-pyrido[2,1-b]quinazoline-8-carboxamide]",5.4,2.4,50,< 10,0.1,< 10
"CC(C)c1ccc2nc3ccc(C(=O)NCCCCn4ccnc4)cn3c(=O)c2c1 [Compound A, N-[4-(1H-imidazol-1-yl)butyl]-2-(1-methylethyl)-11-oxo-11H-pyrido[2,1-b]quinazoline-8-carboxamide]",17,10,13,< 10,0.1 to 1,> 10
"CC(C)c1ccc2nc3ccc(C(=O)NCCCCc4cccnc4)cn3c(=O)c2c1 [Compound B, 2-(1-methylethyl)-N-[4-(3-pyridyl)butyl]-11-oxo-11H-pyrido[2,1-b]quinazoline-8-carboxamide]",13,8,100,< 10,0.1 to 1,< 10
